Source: patent US9708305B2, “Substituted 1,2,3,4-tetrahydroisoquinoline derivatives for the treatment of hormone-dependent diseases” (UNIVERSITÉ LAVAL, priority 2013, dated 2017)
Where “and” joins values, the source holds several entries; their conditions need not be identical. Equal values may be shown once.

Target: T1, STS (Homo sapiens, UniProt P08842)
T1 construct: expressed in transfected cells; host or cells: HEK-293 cells stably transfected with STS (G418 selection), obtained from Dr. Van Luu-The; used as freeze-thaw homogenate
T1 sequence (P08842 22-583): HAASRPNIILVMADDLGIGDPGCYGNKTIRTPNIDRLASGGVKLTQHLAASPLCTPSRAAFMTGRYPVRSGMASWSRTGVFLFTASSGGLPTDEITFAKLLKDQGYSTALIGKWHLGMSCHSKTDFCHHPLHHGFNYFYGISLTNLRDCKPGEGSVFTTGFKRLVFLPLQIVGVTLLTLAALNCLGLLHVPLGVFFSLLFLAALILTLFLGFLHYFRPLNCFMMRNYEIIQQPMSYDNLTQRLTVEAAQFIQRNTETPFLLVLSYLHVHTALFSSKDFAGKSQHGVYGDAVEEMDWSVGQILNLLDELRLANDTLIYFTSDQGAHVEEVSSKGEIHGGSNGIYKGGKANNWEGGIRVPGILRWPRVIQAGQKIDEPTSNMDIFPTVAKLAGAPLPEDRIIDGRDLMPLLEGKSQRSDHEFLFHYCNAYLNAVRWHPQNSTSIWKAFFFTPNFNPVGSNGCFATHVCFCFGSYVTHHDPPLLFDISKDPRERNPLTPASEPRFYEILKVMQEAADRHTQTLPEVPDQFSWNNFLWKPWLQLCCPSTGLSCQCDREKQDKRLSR
Assay: STS inhibition of libraries 1-EO to 4-EO, homogenate of STS transfected HEK-293 cells
Type: biochemical
Conditions: mean ± SEM, triplicate
Protocol: The enzymatic assay was performed using homogenate of STS transfected HEK-293 cells as the source of enzyme activity. The transformation of [^3H]-E1S into [^3H]-E1 was measured using scintillation counting of labeled E1S and E1 in the aqueous and organic phases, respectively. Newly synthesized sulfamate compounds were tested at two concentrations (0.1 μM and 1 μM). Libraries 1-EO and 2-EO were synthesized using the p- and m-benzamide spacers as 1st level of molecular diversity and the same wide variety of secondary amines as 2nd level of diversity (Table 2), which were chosen in a somewhat random fashion while including a different pattern, format and heteroatom. […] Compounds 1-EO-07, 1-EO-09 and 1-EO-10 represent a starting point for optimization, as they show more than 36% of inhibition when tested at a concentration of 0.1 μM. These compounds have relatively hydrophobic substituents compared to the rest of the library members. […] The average log P value for the rest of the library, excluding these three compounds, is 1.93.
This enzymatic assay was carried out according to a procedure previously described for the transformation of substrate [^3H]-E1S (100 μM) into [^3H]-E1 by homogenated HEK-293 cells over-expressing the enzyme activity.^56,73

Compound	STS inhibition (%) (0.1 μM)	STS inhibition (%) (1 μM)	inhibition at 0.1 µM (0.1 μM) [%]	inhibition at 1 µM (1 μM) [%]
NS(=O)(=O)Oc1ccc2c(c1)CN(C(=O)c1ccc(CN3CCCCC3)cc1)CC2 [1-EO-02]	11.5 ± 2.4%	38.3 ± 3.6		
CCN(Cc1ccccc1)Cc1cccc(C(=O)N2CCc3ccc(OS(N)(=O)=O)cc3C2)c1 [2-EO-09]	17% and 17.3 ± 2.5%	69.0 ± 0.0		
CC(C)CCN(CCC(C)C)Cc1ccc(C(=O)N2CCc3ccc(OS(N)(=O)=O)cc3C2)cc1 [3-EO-09]	47.0 ± 13.0%	90.8 ± 1.7		
CN(CCN1CCCCC1)Cc1ccc(C(=O)N2CCc3ccc(OS(N)(=O)=O)cc3C2)cc1 [3-EO-06]	0.3 ± 1.7%	26.8 ± 13.5		
CCN(Cc1ccc(F)cc1)Cc1ccc(C(=O)N2CCc3ccc(OS(N)(=O)=O)cc3C2)cc1 [3-EO-17]	69.1 ± 1.9%	91.2 ± 2.7		
NS(=O)(=O)Oc1ccc2c(c1)CN(C(=O)c1cccc(CN3CCOCC3)c1)CC2 [2-EO-01]	0.0 ± 4.7%	20.9 ± 4.4		
NS(=O)(=O)Oc1ccc2c(c1)CN(C(=O)c1ccc(CN3CCC(N4CCCCC4)CC3)cc1)CC2 [1-EO-08]	8.5 ± 1.2%	53.7 ± 4.7		
CCN(Cc1ccc(C(=O)N2CCc3ccc(OS(N)(=O)=O)cc3C2)cc1)Cc1cccc(Br)c1 [3-EO-12]	80% and 80.2 ± 8.0%	97.2 ± 0.6		
NS(=O)(=O)Oc1ccc2c(c1)CN(C(=O)c1ccc(CN3CCc4ccccc4C3)cc1)CC2 [3-EO-10]	56.0 ± 7.2%	83.0 ± 11.9		
CN1CCN(Cc2ccc(C(=O)N3CCc4ccc(OS(N)(=O)=O)cc4C3)cc2)CC1 [1-EO-04]	2.9 ± 0.5%	23.3 ± 1.3		
CN(C)CCN(Cc1ccccc1)Cc1cccc(C(=O)N2CCc3ccc(OS(N)(=O)=O)cc3C2)c1 [4-EO-04]	0.0 ± 0.0%	28.6 ± 2.2		
CCCN(Cc1ccccc1)Cc1ccc(C(=O)N2CCc3ccc(OS(N)(=O)=O)cc3C2)cc1 [3-EO-01]	64.8 ± 3.8%	94.3 ± 0.3		
CCCN(CCC)Cc1ccc(C(=O)N2CCc3ccc(OS(N)(=O)=O)cc3C2)cc1 [1-EO-10]		84.7 ± 0.2		
CCN(Cc1ccc(F)cc1)Cc1cccc(C(=O)N2CCc3ccc(OS(N)(=O)=O)cc3C2)c1 [4-EO-17]	10.9 ± 7.4%	66.5 ± 4.5		
NS(=O)(=O)Oc1ccc2c(c1)CN(C(=O)c1cccc(CN3CCC(Cc4ccccc4)CC3)c1)CC2 [2-EO-07]	1.4 ± 0.6%	41.9 ± 2.7		
NS(=O)(=O)Oc1ccc2c(c1)CN(C(=O)c1cccc(CN(CCCO)Cc3ccccc3)c1)CC2 [4-EO-03]	25.8 ± 3.9%	37.3 ± 7.0		
CN(C)CCCN(Cc1ccccc1)Cc1cccc(C(=O)N2CCc3ccc(OS(N)(=O)=O)cc3C2)c1 [4-EO-05]	23.8 ± 4.1%	26.0 ± 8.5		
NS(=O)(=O)Oc1ccc2c(c1)CN(C(=O)c1cccc(CN3CCSCC3)c1)CC2 [2-EO-03]	2.3 ± 0.1%	39.6 ± 2.8		
CCN(Cc1ccc(C(=O)N2CCc3ccc(OS(N)(=O)=O)cc3C2)cc1)Cc1cccnc1 [3-EO-15]	35.7 ± 4.3%	85.2 ± 1.7		
NS(=O)(=O)Oc1ccc2c(c1)CN(C(=O)c1ccc(CN3CCN(Cc4ccccc4)CC3)cc1)CC2 [1-EO-05]	20.8 ± 3.7%	75.8 ± 1.6		
CN(CCCN1CCCCC1)Cc1cccc(C(=O)N2CCc3ccc(OS(N)(=O)=O)cc3C2)c1 [4-EO-07]	24.1 ± 0.4%	30.6 ± 6.9		

Compound	STS inhibition (%) (0.1 μM)	STS inhibition (%) (1 μM)	inhibition at 0.1 µM (0.1 μM) [%]	inhibition at 1 µM (1 μM) [%]
CN(CCCN1CCCCC1)Cc1ccc(C(=O)N2CCc3ccc(OS(N)(=O)=O)cc3C2)cc1 [3-EO-07]	17.4 ± 12.3%	40.7 ± 8.6		
CCN(Cc1cccnc1)Cc1cccc(C(=O)N2CCc3ccc(OS(N)(=O)=O)cc3C2)c1 [4-EO-15]	14.3 ± 4.7%	33.5 ± 5.8		
CCN(Cc1ccncc1)Cc1cccc(C(=O)N2CCc3ccc(OS(N)(=O)=O)cc3C2)c1 [4-EO-16]	33.3 ± 0.0%	52.8 ± 1.3		
NS(=O)(=O)Oc1ccc2c(c1)CN(C(=O)c1ccc(CN(CCO)Cc3ccccc3)cc1)CC2 [3-EO-02]	27.9 ± 2.6%	78.0 ± 1.1		
CCN(Cc1cccc(C(=O)N2CCc3ccc(OS(N)(=O)=O)cc3C2)c1)Cc1ccccn1 [4-EO-14]	6.5 ± 6.9%	19.9 ± 12.6		
CCN(Cc1ccccc1)Cc1ccc(CN2CCc3ccc(OS(N)(=O)=O)cc3C2)cc1 [Compound 11]			1	17
NS(=O)(=O)Oc1ccc2c(c1)CN(C(=O)c1ccc(CN3CCOCC3)cc1)CC2 [1-EO-01]	10.9 ± 3.5%	50.6 ± 1.2		
CN(CCN1CCCCC1)Cc1cccc(C(=O)N2CCc3ccc(OS(N)(=O)=O)cc3C2)c1 [4-EO-06]	24.5 ± 7.4%	30.8 ± 6.4		
CN(C)CCN(CCN(C)C)Cc1ccc(C(=O)N2CCc3ccc(OS(N)(=O)=O)cc3C2)cc1 [3-EO-08]	3.8 ± 9.6%	15.9 ± 21.5		
CCN(Cc1ccncc1)Cc1ccc(C(=O)N2CCc3ccc(OS(N)(=O)=O)cc3C2)cc1 [3-EO-16]	47.0 ± 1.8%	86.6 ± 1.8		
NS(=O)(=O)Oc1ccc2c(c1)CN(C(=O)c1ccc(CN(CCCO)Cc3ccccc3)cc1)CC2 [3-EO-03]	5.7 ± 4.4%	64.3 ± 1.6		
NS(=O)(=O)Oc1ccc2c(c1)CN(C(=O)c1cccc(CN3CCN(c4ncccn4)CC3)c1)CC2 [2-EO-06]	1.6 ± 1.6%	24.4 ± 0.4		
CN1CCN(Cc2cccc(C(=O)N3CCc4ccc(OS(N)(=O)=O)cc4C3)c2)CC1 [2-EO-04]	0.0 ± 12.2%	12.6 ± 2.3		
NS(=O)(=O)Oc1ccc2c(c1)CN(C(=O)c1cccc(CN(Cc3ccccc3)Cc3ccco3)c1)CC2 [4-EO-11]	27.5 ± 0.9%			
NS(=O)(=O)Oc1ccc2c(c1)CN(C(=O)c1cccc(CN3CCCCC3)c1)CC2 [2-EO-02]	1.0 ± 5.1%	11.9 ± 2.6		
NS(=O)(=O)Oc1ccc2c(c1)CN(C(=O)c1cccc(CN3CCN(Cc4ccccc4)CC3)c1)CC2 [2-EO-05]	0.0 ± 3.1%	23.7 ± 0.6		
CCN(Cc1ccc(C(=O)N2CCc3ccc(OS(N)(=O)=O)cc3C2)cc1)Cc1ccccn1 [3-EO-14]	42.5 ± 3.5%	87.7 ± 0.7		
NS(=O)(=O)Oc1ccc2c(c1)CN(C(=O)c1ccc(CN(Cc3ccccc3)Cc3ccco3)cc1)CC2 [3-EO-11]	91% and 90.8 ± 2.6%	98.2 ± 0.4		
NS(=O)(=O)Oc1ccc2c(c1)CN(C(=O)c1ccc(CN3CCC(Cc4ccccc4)CC3)cc1)CC2 [1-EO-07]		81.3 ± 0.5		
CCN(Cc1ccc(Br)cc1)Cc1cccc(C(=O)N2CCc3ccc(OS(N)(=O)=O)cc3C2)c1 [4-EO-13]	24.2 ± 4.9%			
